Experimental data reported in the supplement of paper PMC10307832.

Tests used:
Assay in all cases: relative viability (nuclei count vs DMSO), 5 days (fraction); higher = more cells survive
[1] = system: NCI-H1734
Summary of the method: (§1)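 Relative viability was taken as the ratio of nuclei in treated wells to nuclei in vehicle wells. Lung cancer cell lines in 1536-well plates received compounds by pin tool one day after seeding, either one drug alone or a fixed anchor-drug dose plus five library-drug doses (not always all listed) in √10 steps. Nuclei were counted on 4× images after 5 days of treatment, and values are medians of duplicate plates.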

[2] = system: NCI-H358
Summary of the method: as §1

[3] = system: NCI-H2228
Summary of the method: as §1

[4] = system: COR-L23
Summary of the method: as §1

[5] = system: NCI-H1355
Summary of the method: as §1

[6] = system: NCI-H1792
Summary of the method: as §1

[7] = system: NCI-H1395
Summary of the method: as §1

[8] = system: HCC-15
Summary of the method: as §1

[9] = system: HARA
Summary of the method: as §1

[10] = system: NCI-H1993
Summary of the method: as §1

[11] = system: NCI-H838
Summary of the method: as §1

[12] = system: UMC-11
Summary of the method: as §1

[13] = system: NCI-H2009
Summary of the method: as §1

[14] = system: HOP-62
Summary of the method: as §1

[15] = system: NCI-H1755
Summary of the method: as §1

[16] = system: NCI-H2347
Summary of the method: as §1

[17] = system: NCI-H522
Summary of the method: as §1

[18] = system: SK-MES-1
Summary of the method: as §1

[19] = system: NCI-H1793
Summary of the method: as §1

[20] = system: COR-L 105
Summary of the method: as §1

[21] = system: NCI-H2170
Summary of the method: as §1

[22] = system: NCI-H647
Summary of the method: as §1

Q: How did the relative viability ([1]; first compound 0.08 µM) turn out when O=c1cc(-c2cccc3c2Sc2ccccc2S3)oc(N2CCOCC2)c1 + CCNC(=O)c1noc(-c2cc(C(C)C)c(O)cc2O)c1-c1ccc(CN2CCOCC2)cc1 [Luminespib] (partner 0.01 µM) was run?
A: 0.195

Q: What about the relative viability ([1]; first compound 0.253 µM) of the same compound?
A: 0.175

Q: What about the relative viability ([1]; first compound 0.8 µM) of the same compound?
A: 0.228

Q: And the relative viability ([1]; first compound 8 µM)?
A: 0.2

Q: What about the relative viability ([2]; first compound 0.08 µM) of the same compound?
A: 0.154

Q: And the relative viability ([2]; first compound 0.253 µM)?
A: 0.388

Q: And the relative viability ([2]; first compound 0.8 µM)?
A: 0.329

Q: What about the relative viability ([2]; first compound 2.53 µM) of the same compound?
A: 0.375

Q: What about the relative viability ([2]; first compound 8 µM) of the same compound?
A: 0.292

Q: What about the relative viability ([3]; first compound 0.08 µM) of the same compound?
A: 0.139

Q: What about the relative viability ([3]; first compound 0.253 µM) of the same compound?
A: 0.106

Q: And the relative viability ([3]; first compound 0.8 µM)?
A: 0.129

Q: And the relative viability ([3]; first compound 2.53 µM)?
A: 0.146

Q: And the relative viability ([3]; first compound 8 µM)?
A: 0.143

Q: What about the relative viability ([4]; first compound 0.08 µM) of the same compound?
A: 0.863

Q: What about the relative viability ([4]; first compound 0.253 µM) of the same compound?
A: 0.854

Q: What about the relative viability ([4]; first compound 0.8 µM) of the same compound?
A: 0.837

Q: What about the relative viability ([4]; first compound 2.53 µM) of the same compound?
A: 0.78

Q: What about the relative viability ([4]; first compound 8 µM) of the same compound?
A: 0.703

Q: And the relative viability ([5]; first compound 0.08 µM)?
A: 0.847

Q: And the relative viability ([5]; first compound 0.253 µM)?
A: 0.641

Q: And the relative viability ([5]; first compound 0.8 µM)?
A: 0.722

Q: What about the relative viability ([5]; first compound 2.53 µM) of the same compound?
A: 0.73

Q: And the relative viability ([5]; first compound 8 µM)?
A: 0.605

Q: And the relative viability ([6]; first compound 0.08 µM)?
A: 0.362

Q: And the relative viability ([6]; first compound 0.253 µM)?
A: 0.686

Q: And the relative viability ([6]; first compound 0.8 µM)?
A: 0.329

Q: And the relative viability ([6]; first compound 2.53 µM)?
A: 0.424

Q: What about the relative viability ([6]; first compound 8 µM) of the same compound?
A: 0.328

Q: What about the relative viability ([7]; first compound 0.08 µM) of the same compound?
A: 0.632

Q: And the relative viability ([7]; first compound 0.253 µM)?
A: 0.712

Q: What about the relative viability ([7]; first compound 0.8 µM) of the same compound?
A: 0.658

Q: What about the relative viability ([7]; first compound 2.53 µM) of the same compound?
A: 0.63

Q: What about the relative viability ([7]; first compound 8 µM) of the same compound?
A: 0.661

Q: And the relative viability ([8]; first compound 0.08 µM)?
A: 0.206

Q: And the relative viability ([8]; first compound 0.253 µM)?
A: 0.207

Q: What about the relative viability ([8]; first compound 0.8 µM) of the same compound?
A: 0.373

Q: And the relative viability ([8]; first compound 2.53 µM)?
A: 0.242

Q: What about the relative viability ([8]; first compound 8 µM) of the same compound?
A: 0.276

Q: What about the relative viability ([9]; first compound 0.08 µM) of the same compound?
A: 0.708

Q: And the relative viability ([9]; first compound 0.253 µM)?
A: 0.808

Q: And the relative viability ([9]; first compound 0.8 µM)?
A: 0.822

Q: What about the relative viability ([9]; first compound 2.53 µM) of the same compound?
A: 0.576

Q: And the relative viability ([9]; first compound 8 µM)?
A: 0.834

Q: And the relative viability ([10]; first compound 0.08 µM)?
A: 0.628

Q: What about the relative viability ([10]; first compound 0.253 µM) of the same compound?
A: 0.934

Q: What about the relative viability ([10]; first compound 0.8 µM) of the same compound?
A: 0.778

Q: And the relative viability ([10]; first compound 2.53 µM)?
A: 0.724

Q: What about the relative viability ([10]; first compound 8 µM) of the same compound?
A: 0.9

Q: What about the relative viability ([11]; first compound 0.08 µM) of the same compound?
A: 0.277

Q: What about the relative viability ([11]; first compound 0.253 µM) of the same compound?
A: 0.264

Q: What about the relative viability ([11]; first compound 0.8 µM) of the same compound?
A: 0.371

Q: And the relative viability ([11]; first compound 2.53 µM)?
A: 0.313

Q: And the relative viability ([11]; first compound 8 µM)?
A: 0.23

Q: What about the relative viability ([12]; first compound 0.08 µM) of the same compound?
A: 1.07

Q: And the relative viability ([12]; first compound 0.253 µM)?
A: 1.22

Q: What about the relative viability ([12]; first compound 0.8 µM) of the same compound?
A: 1.19

Q: What about the relative viability ([12]; first compound 2.53 µM) of the same compound?
A: 1.25

Q: And the relative viability ([12]; first compound 8 µM)?
A: 1.34

Q: What about the relative viability ([13]; first compound 0.08 µM) of the same compound?
A: 1.07

Q: What about the relative viability ([13]; first compound 0.253 µM) of the same compound?
A: 1.1

Q: What about the relative viability ([13]; first compound 0.8 µM) of the same compound?
A: 1.01

Q: What about the relative viability ([13]; first compound 2.53 µM) of the same compound?
A: 0.939

Q: What about the relative viability ([13]; first compound 8 µM) of the same compound?
A: 1

Q: What about the relative viability ([14]; first compound 0.08 µM) of the same compound?
A: 1.06

Q: What about the relative viability ([14]; first compound 0.253 µM) of the same compound?
A: 1.04

Q: And the relative viability ([14]; first compound 0.8 µM)?
A: 1.03

Q: And the relative viability ([14]; first compound 2.53 µM)?
A: 0.983

Q: What about the relative viability ([14]; first compound 8 µM) of the same compound?
A: 1.02

Q: What about the relative viability ([15]; first compound 0.08 µM) of the same compound?
A: 0.425

Q: And the relative viability ([15]; first compound 0.253 µM)?
A: 0.614

Q: What about the relative viability ([15]; first compound 0.8 µM) of the same compound?
A: 0.378

Q: What about the relative viability ([15]; first compound 2.53 µM) of the same compound?
A: 0.641

Q: What about the relative viability ([15]; first compound 8 µM) of the same compound?
A: 0.5

Q: And the relative viability ([16]; first compound 0.08 µM)?
A: 0.529

Q: And the relative viability ([16]; first compound 0.253 µM)?
A: 0.358

Q: What about the relative viability ([16]; first compound 0.8 µM) of the same compound?
A: 0.284

Q: And the relative viability ([16]; first compound 2.53 µM)?
A: 0.461

Q: What about the relative viability ([16]; first compound 8 µM) of the same compound?
A: 0.391

Q: What about the relative viability ([17]; first compound 0.08 µM) of the same compound?
A: 0.999

Q: What about the relative viability ([17]; first compound 0.253 µM) of the same compound?
A: 1.03

Q: And the relative viability ([17]; first compound 0.8 µM)?
A: 1.21

Q: And the relative viability ([17]; first compound 2.53 µM)?
A: 1.13

Q: And the relative viability ([17]; first compound 8 µM)?
A: 1.08

Q: And the relative viability ([18]; first compound 0.08 µM)?
A: 0.775

Q: What about the relative viability ([18]; first compound 0.253 µM) of the same compound?
A: 0.748

Q: And the relative viability ([18]; first compound 0.8 µM)?
A: 0.734

Q: And the relative viability ([18]; first compound 2.53 µM)?
A: 0.522

Q: And the relative viability ([18]; first compound 8 µM)?
A: 0.505

Q: And the relative viability ([19]; first compound 0.08 µM)?
A: 0.168

Q: And the relative viability ([19]; first compound 0.253 µM)?
A: 0.299

Q: What about the relative viability ([19]; first compound 0.8 µM) of the same compound?
A: 0.231

Q: What about the relative viability ([19]; first compound 2.53 µM) of the same compound?
A: 0.17

Q: And the relative viability ([19]; first compound 8 µM)?
A: 0.153

Q: And the relative viability ([20]; first compound 0.08 µM)?
A: 0.701

Q: And the relative viability ([20]; first compound 0.253 µM)?
A: 0.762

Q: And the relative viability ([20]; first compound 0.8 µM)?
A: 0.705

Q: What about the relative viability ([20]; first compound 2.53 µM) of the same compound?
A: 0.671

Q: What about the relative viability ([20]; first compound 8 µM) of the same compound?
A: 1.02

Q: And the relative viability ([21]; first compound 0.08 µM)?
A: 0.839

Q: And the relative viability ([21]; first compound 0.253 µM)?
A: 0.931

Q: What about the relative viability ([21]; first compound 0.8 µM) of the same compound?
A: 0.903

Q: And the relative viability ([21]; first compound 2.53 µM)?
A: 0.63

Q: And the relative viability ([21]; first compound 8 µM)?
A: 0.533

Q: And the relative viability ([22]; first compound 0.08 µM)?
A: 0.123

Q: What about the relative viability ([22]; first compound 0.253 µM) of the same compound?
A: 0.138

Q: And the relative viability ([22]; first compound 0.8 µM)?
A: 0.259

Q: And the relative viability ([22]; first compound 2.53 µM)?
A: 0.183

Q: And the relative viability ([22]; first compound 8 µM)?
A: 0.161
